Measurements as given in EP0597303A2, “Cephalosporin derivatives” (priority 1992, dated 1994).
Counter-ions that a name gives are not always drawn. Like-named read-outs stand apart in the source and are kept apart here.

Assays:
Experiment in all cases: MIC, Agar (Mueller Hinton) Dilution Method
Assay type in all cases: cell-based
Bacillus subtilis 558 = system: Bacillus subtilis 558
Source text: (§1) The in vitro activity of the compounds of formula I of the present invention as measured by the Minimum Inhibitory Concentration (MIC) in micrograms/ml utilizing the Agar (Mueller Hinton) Dilution Method against a variety of Gram-positive and Gram-negative organisms, is set forth in Table 1.

Ps. aeruginosa K799/WT = details: Pseudomonas aeruginosa, Gram Negative
Source text: as §1

[1] = system: Str. pneumoniae N82-012-MC; details: Streptococcus pneumoniae, N82012MC
Source text: as §1

Ps. aeruginosa 765 = details: Pseudomonas aeruginosa, Gram Negative
Source text: as §1

Prot. mirabilis 620A = details: Proteus mirabilis
Source text: as §1

Staph. aureus 95 = details: Staphylococcus aureus
Source text: as §1

E. coli DC-2 = details: Escherichia coli, DC2, Gram Negative
Source text: as §1

Cit. freundii EL-1408 = details: Citrobacter freundii, EL1408
Source text: as §1

E. coli 1527E = details: Escherichia coli, Gram Negative
Source text: as §1

Enter. cloacae 4946 = details: Enterobacter cloacae, Gram Negative
Source text: as §1

E. coli Leo HA2 = details: Escherichia coli, LEOHA2, Gram Negative
Source text: as §1

Staph. aureus 404 = details: Staphylococcus aureus
Source text: as §1

[2] = system: Staphylococcus aureus Smith; details: Staphylococcus aureus Smith; Gram Positive and Others; read-out: MIC
Source text: as §1

Ps. aeruginosa 1973 E = details: Pseudomonas aeruginosa, Gram Negative
Source text: as §1

Prot. vulgaris 1028 BC = details: Proteus vulgaris
Source text: as §1

Escherichia coli 257 = details: Gram Negative
Source text: as §1

E. coli B = details: Escherichia coli, Gram Negative
Source text: as §1

Ent. faecalis ATCC 29212 = details: Enterococcus faecalis, ATCC29212, Gram Positive and Others
Source text: as §1

[3] = system: Ps. aeruginosa ATCC 27853; details: Pseudomonas aeruginosa, ATCC27853, Gram Negative
Source text: as §1

Bacillus megaterium 164 = details: Priestia megaterium
Source text: as §1

E. coli DC-0 = details: Escherichia coli, DC0, Gram Negative
Source text: as §1

Prot. vulgaris 100 = details: Proteus vulgaris, Gram Negative
Source text: as §1

Ps. aeruginosa 18SH = details: Pseudomonas aeruginosa, constitutive ß-lactamase producer, Gram Negative
Source text: as §1

E. coli HMS1 = details: Escherichia coli
Source text: as §1

E. coli 1573E = details: Escherichia coli
Source text: as §1

E. coli 4 = details: Escherichia coli
Source text: as §1

Ps. aeruginosa 56M = details: Pseudomonas aeruginosa, Gram Negative
Source text: as §1

E. coli Leo HA2M4 = details: Escherichia coli, LEOHA2M4
Source text: as §1

A. calcoaceticus PCI-3 = details: Acinetobacter calcoaceticus, PCI3, Gram Negative
Source text: as §1

Staph. aureus 1059B = details: Staphylococcus aureus
Source text: as §1

Mycobacterium phlei 78 = details: Mycolicibacterium phlei; Mycobacterium phlei 78; Gram Positive and Others; read-out: MIC
Source text: as §1

Staph. aureus Evans = details: Staphylococcus aureus
Source text: as §1

Staph. aureus ATCC 25923 = details: Staphylococcus aureus, ATCC25923, Gram Positive and Others
Source text: as §1

Serratia marcescens SM = system: Serratia marcescens SM
Source text: as §1

Prov. rettgeri ATCC 9250 = details: Providencia rettgeri, ATCC9250, Gram Negative
Source text: as §1

[4] = system: Citrobacter freundii BS-16; details: BS16; Citrobacter freundii BS-16; constitutive ß-lactamase producer; Gram Negative; read-out: MIC
Source text: as §1

E. coli 94 = details: Escherichia coli, Gram Negative
Source text: as §1

Ps. aeruginosa 8780 = details: Pseudomonas aeruginosa, Gram Negative
Source text: as §1

[5] = system: Streptococcus pneumoniae 6303; details: Streptococcus pneumoniae, 6303
Source text: as §1

[6] = Str. pneumoniae N82-012-MC, Gram Positive and Others, read-out: MIC
[7] = Staph. aureus 95, Gram Positive and Others, read-out: MIC
[8] = Cit. freundii EL-1408, Gram Negative, read-out: MIC
[9] = Staph. aureus 404, Gram Positive and Others, read-out: MIC
[10] = Bacillus megaterium 164, Gram Positive and Others, read-out: MIC
[11] = E. coli HMS1, Gram Negative, read-out: MIC
[12] = E. coli Leo HA2M4, Gram Negative, read-out: MIC
[13] = Staph. aureus 1059B, Gram Positive and Others, read-out: MIC
[14] = Serratia marcescens SM, constitutive ß-lactamase producer, Gram Negative, read-out: MIC
[15] = Prot. mirabilis 620A, Gram Negative, read-out: MIC
[16] = E. coli 1573E, Gram Negative, read-out: MIC

SMILES | MIC (Ps. aeruginosa K799/WT) [µg/mL] | MIC (Ps. aeruginosa 765) [µg/mL] | MIC (E. coli DC-2) [µg/mL] | MIC (E. coli 1527E) [µg/mL] | MIC (Enter. cloacae 4946) [µg/mL] | MIC (E. coli Leo HA2) [µg/mL] | MIC [2] [µg/mL] | MIC (Ps. aeruginosa 1973 E) [µg/mL] | MIC (Escherichia coli 257) [µg/mL] | MIC (E. coli B) [µg/mL] | MIC (Ent. faecalis ATCC 29212) [µg/mL] | MIC [3] [µg/mL] | MIC (E. coli DC-0) [µg/mL] | MIC (Prot. vulgaris 100) [µg/mL] | MIC (Ps. aeruginosa 18SH) [µg/mL] | MIC (Ps. aeruginosa 56M) [µg/mL] | MIC (A. calcoaceticus PCI-3) [µg/mL] | MIC (Mycobacterium phlei 78) [µg/mL] | MIC (Staph. aureus ATCC 25923) [µg/mL] | MIC (Prov. rettgeri ATCC 9250) [µg/mL] | also measured
O=C(Cc1cccs1)N[C@@H]1C(=O)N2C(C(=O)O)=C(COC(=O)N3CCN(c4c(F)cc5c(=O)c(C(=O)O)cn(C6CC6)c5c4F)CC3)CS[C@H]12 [Formula Ia, [6R,7R]-3-[[[[4-(3-Carboxy-1-cyclopropyl-6,8-difluoro-1,4-dihydro-4-oxo-7-quinolinyl)-1-piperazinyl]carbonyl]-oxy]-methyl]-8-oxo-7-[(2-thienylacetyl)amino]-5-thia-1-azabicyclo-[4.2.0]oct-2-ene-2-carboxylic acid] | 2 | 2 | 0.25 | ≤ 0.0156 | 0.0625 | ≤ 0.0156 | 0.25 | 1 | 0.0625 | 0.0313 | 4 | 1 | 2 | 0.125 | 1 | 0.25 | 0.25 | 0.125 | 0.25 | 0.25 | MIC (Bacillus subtilis 558; Bacillus subtilis 558, Gram Positive and Others, read-out: MIC): 0.0313 µg/mL; MIC [1, 6]: 0.0313 µg/mL; MIC (Prot. mirabilis 620A; 620A): 0.0625 µg/mL; MIC (Staph. aureus 95; [7]): 0.5 µg/mL; MIC (Cit. freundii EL-1408; [8]): 0.25 µg/mL; MIC (Staph. aureus 404; [9]): 0.5 µg/mL; MIC (Prot. vulgaris 1028 BC; 1028BC): 0.0625 µg/mL; MIC (Bacillus megaterium 164; [10]): 0.125 µg/mL; MIC (E. coli HMS1; [11]): ≤ 0.0156 µg/mL; MIC (E. coli 1573E; 1573E): 0.0625 µg/mL; MIC (E. coli 4; E. coli 4, Gram Negative, read-out: MIC): 0.125 µg/mL; MIC (E. coli Leo HA2M4; [12]): ≤ 0.0156 µg/mL; MIC (Staph. aureus 1059B; [13]): 0.25 µg/mL; MIC (Staph. aureus Evans; Staph. aureus Evans, Gram Positive and Others, read-out: MIC): 0.5 µg/mL; MIC (Serratia marcescens SM; [14]): 0.5 µg/mL; MIC [4]: 0.0313 µg/mL; MIC (E. coli 94): 0.0625 µg/mL
N#CCC(=O)N[C@@H]1C(=O)N2C(C(=O)O)=C(COC(=O)NC3CCN(c4c(F)cc5c(=O)c(C(=O)O)cn(C6CC6)c5c4F)C3)CS[C@H]12 (stereo partly shown) [Formula Ib, [6R,7R]-3-[[[[[1-(3-Carboxy-1-cyclopropyl-6,8-difluoro-1,4-dihydro-4-oxo-7-quinolinyl-3-[R,S]-pyrrolidinyl]-amino]carbonyl]oxy]methyl]-7-[(cyanoacetyl)amino]-8-oxo-5-thia-1-azabicyclo[4.2.0]oct-2-ene-2-carboxyiic acid monosodium salt] | 0.5 | 1 | 0.25 | 0.0625 | 0.125 | 0.0156 | 0.25 | 0.5 | 0.125 | 0.0625 | 2 | 1 | 1 | 0.25 | 0.5 | 0.25 | 0.25 | 0.25 | 0.25 | 0.25 | MIC (Bacillus subtilis 558; Bacillus subtilis, 558): 0.125 µg/mL; MIC [1, 6]: 0.5 µg/mL; MIC (Prot. mirabilis 620A; [15]): 0.25 µg/mL; MIC (Staph. aureus 95; [7]): 0.25 µg/mL; MIC (Cit. freundii EL-1408; [8]): 0.25 µg/mL; MIC (Ps. aeruginosa 8780): 1 µg/mL; MIC (Staph. aureus 404; [9]): 0.25 µg/mL; MIC [5]: 0.125 µg/mL; MIC (Prot. vulgaris 1028 BC; 1028BC): 0.125 µg/mL; MIC (Bacillus megaterium 164; [10]): 0.0625 µg/mL; MIC (E. coli HMS1; HMS1): 0.0313 µg/mL; MIC (E. coli 1573E; [16]): 0.0625 µg/mL; MIC (E. coli 4; 4): 0.125 µg/mL; MIC (E. coli Leo HA2M4): 0.0313 µg/mL; MIC (Staph. aureus 1059B; [13]): 0.25 µg/mL; MIC (Staph. aureus Evans): 0.125 µg/mL; MIC (Serratia marcescens SM; [14]): 0.25 µg/mL; MIC [4]: 0.0625 µg/mL; MIC (E. coli 94): 0.125 µg/mL
N#CCC(=O)N[C@@H]1C(=O)N2C(C(=O)O)=C(COC(=O)N[C@H]3CCN(c4c(F)cc5c(=O)c(C(=O)O)cn(C6CC6)c5c4F)C3)CS[C@H]12 [Formula Iba, [6R-[3(S^*), 6 alpha, 7 beta]]-3-[[[[[1-(3-Carboxy-1-cyclopropyl-6,8-difluoro-1,4-dihydro-4-oxo-7-quinolinyl-3-pyrrolidinyl]-amino]carbonyl]oxy]methyl]-7-[(cyanoacetyl)amino]-8-oxo-5-thia 1-azabicyclo[4.2.0]oct-2-ene-2-carboxylic acid monosodium salt] | 0.5 | 0.5 | 0.0625 | ≤ 0.0156 | 0.0313 | ≤ 0.0156 | 0.0625 | 0.25 | 0.0313 | ≤ 0.0156 | 0.5 | 1 | 0.5 | 0.0625 | 0.25 | 0.0625 | 0.0625 | 0.0625 | 0.0625 | 0.0625 | MIC (Bacillus subtilis 558; Bacillus subtilis, 558): 0.0313 µg/mL; MIC [1]: 0.125 µg/mL; MIC (Prot. mirabilis 620A; [15]): 0.0625 µg/mL; MIC (Staph. aureus 95; 95): 0.0313 µg/mL; MIC (Cit. freundii EL-1408): 0.125 µg/mL; MIC (Ps. aeruginosa 8780): 0.5 µg/mL; MIC (Staph. aureus 404; 404): 0.0313 µg/mL; MIC [5]: 0.0313 µg/mL; MIC (Prot. vulgaris 1028 BC; Prot. vulgaris 1028 BC, Gram Negative, read-out: MIC): ≤ 0.0156 µg/mL; MIC (Bacillus megaterium 164; 164): 0.0313 µg/mL; MIC (E. coli HMS1; [11]): ≤ 0.0156 µg/mL; MIC (E. coli 1573E; [16]): ≤ 0.0156 µg/mL; MIC (E. coli 4; 4): 0.0313 µg/mL; MIC (E. coli Leo HA2M4; [12]): ≤ 0.0156 µg/mL; MIC (Staph. aureus 1059B; 1059B): 0.0313 µg/mL; MIC (Staph. aureus Evans): 0.0313 µg/mL; MIC (Serratia marcescens SM; Serratia marcescens): 0.125 µg/mL; MIC [4]: ≤ 0.0156 µg/mL; MIC (E. coli 94): 0.0313 µg/mL
